Patent US6743892B1, “Molecules that home to a selected organ in vivo” (La Jolla Cancer Research Foundation, priority 1995, dated 2004)
Bridge positions count the residues as written; N and C are the ends. Ends that are not written are not given here.

Assays:
brain [1] = experiment: Peptide competition of phage homing to brain; type: in vivo, mice; conditions: 100 μg synthetic cyclic peptide injected with 1×10^8 TU phage
Protocol: In order to confirm the specificity of a peptide for directing homing to a selected organ, peptide competition experiments were performed. The cyclic peptide, CLSSRLDAC (SEQ ID NO: 3), which is one of the brain homing peptides (see Table 1) was synthesized (Immunodynamics; La Jolla Calif.) and purified by HPLC. The effect on the homing of phage expressing CLSSRLDAC (SEQ ID NO: 3), CENWWGDVC (SEQ ID NO: 2) or […] (SEQ ID NO: 16) to the brain was examined in order to determine whether co-administration of the synthetic peptide affected homing of the phage.
Phage expressing CLSSRLDAC (SEQ ID NO: 3), CENWWGDVC (SEQ ID NO: 2) or […] (SEQ ID NO: 16) were titrated to the same concentration and 1×10^8 TU was injected into mice alone, or with 100 μg purified synthetic cyclic CLSSRLDAC (SEQ ID NO: 3) peptide. The synthetic CLSSRLDAC (SEQ ID NO: 3) peptide inhibited the homing of phage expressing CLSSRLDAC (SEQ ID NO: 3) by about 60%.

brain [2] = experiment: 125I-peptide/RBC complex homing to brain and kidney, with or without unlabeled peptide; type: in vivo, mouse; conditions: 10 mM unlabeled peptide coadministered
Protocol: The synthetic cyclic CLSSRLDAC (SEQ ID NO: 3) peptide (1 mg) was labeled with iodine-125 using the Bolton and Hunter reagent (Amersham; Arlington Heights Ill.). Labeled peptide was purified by reverse phase HPLC on Sep-Pak™ cartridges (Waters, Millipore Corp.; Milford Pa.) and the ^125I-peptide (200 μg) was coupled to 1 ml glutaraldehyde-stabilized sheep RBC (Sigma Chemical Co.; St. Louis Mo.) according to the manufacturer's instructions.
After 2 min, each mouse was perfused through the heart with 50 ml DMEM and the brain and kidney were removed and assayed for radioactivity.
Approximately twice as much of the CLSSRLDAC/RBC complex (SEQ ID NO: 3) homed to brain than to kidney. […] Coadministration of unlabeled CVRLNSLAC (SEQ ID NO: 43) had no effect on selective homing of the complex to brain and no effect on the non-specific localization of the complex in the kidney.

brain [3] = experiment: Brain homing activity (test not described); conditions: in vivo

Sequence	effect on homing to brain of CENWWGDVC phage (brain [1])	inhibition of homing to brain of phage expressing CLSSRLDAC (brain [1])	effect of coadministration on brain homing of the CLSSRLDAC/RBC complex (brain [2])	effect of coadministration on localization of the CLSSRLDAC/RBC complex in the kidney (brain [2])	brain homing activity (brain [3])
CLSSRLDAC (disulfide 1-9 (inferred))	did not affect	about 60%	essentially completely inhibited	no effect	–
CVRLNSLAC [reference compound]	–	–	no effect	no effect	no brain homing activity
